Tested on: BALB/c mice, OVA induced inflammation and AHR
Test: Ovalbumin-induced airway inflammation and AHR mouse model
Assay type: in vivo
Settings: HPBCD 10 mM inhalation
Protocol: Two intranasal instillations of house dust mite were performed on days 0 and 7 to induce the migration of specific memory CD4+ T-cells into lung parenchyma, followed by a challenge instillation on day 14. […] The last house dust mite instillation was preceded by two days of HPBCD or PBS inhalations and followed by three inhalations until sacrifice (FIG. 1A). […] Airway responsiveness was evaluated by exposing animals to increasing doses of inhaled methacholine and by measuring Newtonian resistances representing the resistance of central or conducting airways. […] The bronchoalveolar lavage fluid (BALF) was then recovered and analyzed for cell content. […] The effect of HPBCD inhalation on T-cell numbers in lung parenchyma was investigated by flow cytometry.
Mice were lightly isoflurane-anesthetized and received an intra-nasal (i.n) instillation of HDM extract (100 μg; 50 μl) in endotoxin-free saline on days 0, 7 and 14. Mice were subjected to inhalation (generated by ultrasonic nebulizer (Devilbiss 2000)) of HPBCD 10 mM or endotoxin-free saline for 40 minutes between day 12 and 16. On day 14, they received the inhalation 1 h before the last i.n. instillation of HDM. After measurement of bronchial responsiveness using the FlexiVent System, mice were sacrificed on day 17. Mice submitted to ovalbumin as allergen were i.p injected with 10 mcg ovalbumin grade 5 and exposed to ovalbumin grade 3 by inhalation between day 21 and 25. Mice were treated with HPBCD 10 mM given by inhalation between day 19 and 25. […]
Mice were anesthetized by intraperitoneal injection with a mixture of ketamine (10 mg/ml, Merial, Brussel, Belgium) and xylazine (1 mg/ml, VMD, Arendonk, Belgium). […] Respiratory parameters following methacholine challenge (3, 6, and 12 gr/l (or 24 gr/l)) were evaluated using a 3 sec broadband signal to measure input impedance from 1 to 20.5 Hz and to calculate constant-phase model parameters (Quick-prime 3). Newtonian resistance (Rn) was the main parameter measured during the challenge. […]

CC(O)COC[C@H]1O[C@@H]2O[C@H]3[C@H](O)[C@@H](O)[C@@H](O[C@H]4[C@H](O)[C@@H](O)[C@@H](O[C@H]5[C@H](O)[C@@H](O)[C@@H](O[C@H]6[C@H](O)[C@@H](O)[C@@H](O[C@H]7[C@H](O)[C@@H](O)[C@@H](O[C@H]8[C@H](O)[C@@H](O)[C@@H](O[C@H]1[C@H](O)[C@H]2O)O[C@@H]8COCC(C)O)O[C@@H]7COCC(C)O)O[C@@H]6COCC(C)O)O[C@@H]5COCC(C)O)O[C@@H]4COCC(C)O)O[C@@H]3COCC(C)O (stereo partly drawn) [HPBCD, 2-hydroxypropyl-beta-cyclodextrin]
significantly decrease: airway hyperresponsiveness induced by ovalbumin (FIG. 2B) | number of inflammatory cells in BALF (FIG. 2C) | number of eosinophils around the bronchi (FIG. 2D)
